{
  "source": "patent US20260256790A1",
  "about": "“DEBIO-0123 IN COMBINATION WITH TEMOZOLOMIDE AND RADIOTHERAPY FOR USE IN TREATING GLIOMA” (Debiopharm International S.A., priority 2023, published 2026)",
  "key": {"SF188 cells": {"test_system": "SF188 cells", "assay": "Colony formation assay in SF188 cells", "type": "cell-based", "settings": "up to 400 nM, 10 days post-treatment", "procedure": "SF188 cells were transfected with ATRX siRNA (siATRX_1 or siATRX_2) either individually (A) or as a pool (B and C) or control siRNA (siCon) and ATRX deficiency assessed by determining relative ATRX protein levels by western blotting. Control and ATRX-deficient SF188 cells were then treated with compound of formula (I) at a range of concentrations between 0 and 1.5 uM (FIG. 7A) and at 400 nM (FIG. 7B) and drug sensitivities were assessed via an ATP-based cell viability assay or in colony formation assay.\nFor cell viability assessment, SF188 cells were seeded in 96-well culture plates at 100-500 cells in 100 μl of culture media per well. After overnight incubation, 100 μl of culture media containing compound of formula (I) was added to each well at the desired final concentration. After 72 h, cell viability was assessed by CellTiter-Glo 2.0 according to the manufacturer's instructions. Each condition was tested in triplicate or quadruplicate, and the average viability is presented as a percentage of vehicle-treated cells. For colony formation assessment (FIG. 7C), SF188 cells were seeded on a 6-well plate at 100 cells per well in 1 ml of culture media. […] The number of colonies in each well was counted manually. […] Colony-forming efficiency was determined by normalizing the colony numbers to the vehicle-treated cells."}, "[1]": {"assay": "Plasma and brain concentrations (PK) in healthy mice after oral dosing", "type": "in vivo, Nu/Nu mice", "settings": "30 mg/kg, oral; for Kp / Cmax / AUC(0-inf) / AUC(0-t): male, Nu/Nu, mouse, po; for Kp: brain/plasma; for Cmax / AUC(0-inf) / AUC(0-t): plasma; for AUC(0-inf): read-out: AUCInf, plasma; for AUC(0-t): read-out: AUCLast, plasma", "procedure": "Healthy male Nu/Nu mice were treated orally with either (i) a single dose of 30 mg/kg Compound of formula (I) ([…], 3 mice per time-point), (ii) 30 mg/kg of Compound of formula (I) given once a day for four consecutive days (27 mice in total, 3 mice per time-point), (iii) 30 mg/kg of AZD-1775 (adavosertib, purchased from Combi-Blocks, San Diego, USA) given twice a day for three consecutive days and once on day four (27 mice in total, 3 mice per time-point), (iv) or 80 mg/kg of Zn-c3 (purchased from EOS Med Chem, Jina City, China) given once a day for four consecutive days (27 mice in total, 3 mice per time-point). The doses used for each compound have previously been reported as active dose levels. Compound of formula (I) was formulated as a suspension in 0.5% methylcellulose with 1% Tween 80 and administered at a concentration of 3.0 mg/mL. […] The dosing volume of all formulations was 10 mL/kg. At designated time-points the mice were euthanized by carbon dioxide inhalation, blood samples were collected by cardiac puncture into K2EDTA containing tubes. The tubes were inverted several times, placed on ice and centrifuged within 30 min of collection (4° C. for 5 min at 6000 rpm) to obtain plasma. The plasma samples were snap frozen in dry ice and stored at −80° C. until analysis. The brain was collected, weighed and snap frozen in dry ice until further analysis. To obtain brain homogenates, firstly water was added to each brain (brain weight:water volume=1:4) then the brain was homogenized with a H-speed dispersator (time procedure: homogenizing for 10 s and interval of 10 s per time, total 3-5 times; cleaning procedure for dispersator: Water-Methanol-Ethanol-Water, 10 s each). The brain homogenate samples were transferred to individual tubes and stored at −80° C. prior to analysis. The mouse plasma and brain samples were analysed as follows. For each analytical batch of plasma and brain samples, the standard and quality control (QC) samples were freshly prepared in blank male Nu/Nu mouse plasma (with K2EDTA anticoagulant) and brain homogenate. To an aliquot of each standard, QC, control blank and study samples, internal standard (^13CD6-Compound of formula (I) for Compound of formula (I), terfenadine for AZD-1775 and Zn-c3) in methanol/acetonitrile (1:1, v/v) was added. The samples were mixed for 1 minute and centrifuged at 4000 rpm at 4° C. for 15 minutes. Supernatants were transferred and diluted in MeOH/water (1:1, v/v, with 0.1% FA) prior to LC-MS/MS injection. Chromatographic separation was achieved on an Shimadzu LC-20AD using a Kinetex 2.6μ C18 100A column (50 mm*3.00 mm) for Compound of formula (I) and AZD-1775 samples and a ACE 5 C4 column (50 mm*2.1 mm) for Zn-c3 samples with gradient elution using the following conditions: flow rate: 0.7 mL/min; run time: 3.0 min; mobile phase: A: 5 mM NH4OAc (0.1% FA), B: Acetonitrile (0.1% FA). Detection was accomplished with an AB Sciex 5500 utilizing electrospray MS/MS in positive ion multiple reaction monitoring mode (MRM). The MRM channels were 511.29/98 for Compound of formula (I), 501.47/442.20 for AZD-1775 and 527.36/468.10 for Zn-c3. The MRM channels of internal standard were 518.17/102.10 (^13CD6-Compound of formula (I)) for Compound of formula (I), 472.40/436.40 (terfenadine) for AZD-1775 and Zn-c3. The measured plasma and brain concentrations at each time-point, the nominal sample collection time, and intended dosages were used for pharmacokinetic analysis. The PK parameters of all study compounds were determined by non-compartmental analysis using WinNonlin Version 8.0 (Pharsight)."}},
  "note": "Read-outs that look alike come from different tables or passages of the source.",
  "data": [
    {"smiles": "Cc1cc(Nc2ncc3c(n2)N(C)CN(c2c(Cl)cccc2Cl)C3=O)ccc1C1CCN(C)CC1", "note": "[Compound of formula (I)]", "values": [
      {"measurement": "Surviving fraction of cells, colony formation assay", "setting": "SF188 cells", "result": "significantly reduced the surviving fraction of cells"},
      {"measurement": "AUCInf, brain", "setting": "[1]; qd for four days, day 4", "result": 31763, "unit": "ng·h/g"},
      {"measurement": "AUCLast, brain", "setting": "[1]; qd for four days, day 4", "result": 31610, "unit": "ng·h/g"},
      {"measurement": "Cmax, brain", "setting": "[1]; qd for four days, day 4", "result": 1963, "unit": "ng/g"},
      {"measurement": "AUCInf, brain", "setting": "[1]; single dose, day 1", "result": 37471, "unit": "ng·h/g"},
      {"measurement": "AUCLast, brain", "setting": "[1]; single dose, day 1", "result": 37368, "unit": "ng·h/g"},
      {"measurement": "Cmax, brain", "setting": "[1]; single dose, day 1", "result": 3557, "unit": "ng/g"},
      {"measurement": "Kp", "setting": "[1]; qd for four days, day 4, read-out: Brain to plasma ratio based on AUCInf", "result": 0.489},
      {"measurement": "Kp", "setting": "[1]; qd for four days, day 4, read-out: Brain to plasma ratio based on AUCLast", "result": 0.488},
      {"measurement": "Kp", "setting": "[1]; qd for four days, day 4, read-out: Brain to plasma ratio based on Cmax", "result": 0.498},
      {"measurement": "Kp", "setting": "[1]; single dose, day 1, read-out: Brain to plasma ratio based on AUCInf", "result": 0.44},
      {"measurement": "Kp", "setting": "[1]; single dose, day 1, read-out: Brain to plasma ratio based on AUCLast", "result": 0.439},
      {"measurement": "Kp", "setting": "[1]; single dose, day 1, read-out: Brain to plasma ratio based on Cmax", "result": 0.505},
      {"measurement": "Cmax", "setting": "[1]; qd for four days, day 4", "result": 3940, "unit": "ng/mL"},
      {"measurement": "AUC(0-inf)", "setting": "[1]; qd for four days, day 4", "result": 65000, "unit": "ng·h/mL"},
      {"measurement": "AUC(0-t)", "setting": "[1]; qd for four days, day 4", "result": 64800, "unit": "ng·h/mL"},
      {"measurement": "Cmax", "setting": "[1]; single dose, day 1", "result": 7040, "unit": "ng/mL"},
      {"measurement": "AUC(0-inf)", "setting": "[1]; single dose, day 1", "result": 85200, "unit": "ng·h/mL"},
      {"measurement": "AUC(0-t)", "setting": "[1]; single dose, day 1", "result": 85100, "unit": "ng·h/mL"}
    ]}
  ]
}
